Structures can show the parent of a compound that is named as a salt.

The text below walks through data of US20230295212A1 (ROME Therapeutics, Inc., priority 2022, published 2023).

The target in assay [1] is T1, HERV-K reverse transcriptase (Homo sapiens, UniProt V9H0F6).
T1 construct: fused on or other part: C-terminal 8xHis tag
Briefly: Homogeneous time-resolved fluorescence (HTRF) HERV-K RT assay. The assay is classed as biochemical. Conditions: triphosphate analogs, HERV-K enzyme 16 ng/well, 25° C. 30 minutes. The method, then:
Exemplary triphosphate analogs were tested for ability to inhibit HERV-K reverse transcriptase using a homogeneous time-resolved fluorescence (HTRF) assay. Assay procedures and results are described below.
The HERV-K reverse transcriptase homogeneous time-resolved fluorescence (HTRF) assay was performed in a 384-well format with HERV-K reverse transcriptase (2-596)-8His protein. Baculoviruses were created using Bac-to-Bac technology (Invitrogen). pFastflac donor plasmids containing HERV-K reverse transcriptase sequence (NCBI GenBank number AAC63291.1, J. Virology (1999) Vol. 73, No. 3, pp. 2365-2375) were transformed into DH10 Bac cells following the manufacturer's instructions. Recombinant bacmids were then isolated clonally and transfected into SF9 cells with lipofectin. HERV-K reverse transcriptase was expressed in the SF9 insect cells and then purified using immobilized metal affinity chromatography (IMAC) followed by size-exclusion chromatography (SEC).
Test compound was serially diluted in DMSO and further diluted in the assay buffer (50 mM Tris-HCl, 50 mM KCl, 10 mM MgCl2, 10 mM DTT, pH 8.1) to achieve a final DMSO concentration of 1%. The serially diluted compound was mixed with 16 ng/well of HERV-K enzyme, 5 nM of pre-annealed template/biotin-primer pair (synthesized at Geneway Biotechnology), 10 nM of Fluorescein-12-dCTP fluorescent probe (PerkinElmer), and 1 mM dGTP, dATP, and DTTP (ThermoFisher). The template/biotin-primer sequences were:
After incubating at 25° C. for 30 minutes, the detection reagent 20 mM EDTA with streptavidin-terbium cryptate (Cisbio Bioassay) in the PPI buffer (Cisbio Bioassay) was added, and the mixture was incubated at 25° C. for 60 minutes. At the end of the incubation, fluorescence was read at ex/em=337/485 nm and ex/em=337/520 nm on an Envision 2104 plate reader (PerkinElmer). The fluorescence ratio at 520/485 nm was used for the calculation. […] IC50 values were calculated by fitting the compound dose inhibition curve with a 4-parameter non-linear regression equation.
(In TR-FRET formats the signal depends on donor and acceptor labels being close together.)

For another assay, the target named is T2, human DNA polymerase γ (Homo sapiens, UniProt P54098).
T2 construct: purchased Gentaur
T2 sequence (P54098 1-1239): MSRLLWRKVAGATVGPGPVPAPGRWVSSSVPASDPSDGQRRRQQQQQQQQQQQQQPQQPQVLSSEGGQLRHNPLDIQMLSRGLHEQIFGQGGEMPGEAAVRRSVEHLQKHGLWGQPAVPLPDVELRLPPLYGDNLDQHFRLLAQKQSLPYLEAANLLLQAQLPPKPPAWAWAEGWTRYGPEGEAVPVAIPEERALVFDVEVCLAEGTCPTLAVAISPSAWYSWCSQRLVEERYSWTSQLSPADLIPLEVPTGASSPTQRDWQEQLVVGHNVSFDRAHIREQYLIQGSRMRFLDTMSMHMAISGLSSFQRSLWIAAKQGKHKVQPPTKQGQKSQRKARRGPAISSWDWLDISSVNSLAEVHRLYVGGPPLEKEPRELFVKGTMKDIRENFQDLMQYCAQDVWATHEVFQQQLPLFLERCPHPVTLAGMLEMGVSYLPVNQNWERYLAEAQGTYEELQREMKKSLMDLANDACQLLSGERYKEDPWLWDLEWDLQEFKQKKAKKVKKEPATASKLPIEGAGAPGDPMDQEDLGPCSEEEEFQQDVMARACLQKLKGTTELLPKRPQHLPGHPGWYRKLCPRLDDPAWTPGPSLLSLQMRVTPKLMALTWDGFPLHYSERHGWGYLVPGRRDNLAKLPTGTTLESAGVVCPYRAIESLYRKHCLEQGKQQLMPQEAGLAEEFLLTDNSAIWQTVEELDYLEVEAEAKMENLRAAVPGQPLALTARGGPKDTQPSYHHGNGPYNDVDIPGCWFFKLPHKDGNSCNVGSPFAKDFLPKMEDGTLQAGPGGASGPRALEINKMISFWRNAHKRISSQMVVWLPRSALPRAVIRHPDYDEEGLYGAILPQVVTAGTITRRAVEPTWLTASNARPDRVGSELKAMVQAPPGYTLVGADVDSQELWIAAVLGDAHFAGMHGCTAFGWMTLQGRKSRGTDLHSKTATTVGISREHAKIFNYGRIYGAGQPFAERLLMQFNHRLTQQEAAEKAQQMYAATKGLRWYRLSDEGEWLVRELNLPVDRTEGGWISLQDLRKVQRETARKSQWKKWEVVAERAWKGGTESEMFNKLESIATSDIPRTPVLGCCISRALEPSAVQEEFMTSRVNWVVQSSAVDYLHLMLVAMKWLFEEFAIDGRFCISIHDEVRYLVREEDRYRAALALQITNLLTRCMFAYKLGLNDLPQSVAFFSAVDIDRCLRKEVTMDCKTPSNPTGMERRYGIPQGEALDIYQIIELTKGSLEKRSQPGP
Briefly: Homogeneous time-resolved fluorescence human DNA polymerase γ assay. The assay is classed as biochemical. Conditions: triphosphates, room temperature 30 minutes. How it is done: Exemplary compounds were tested for ability to inhibit human DNA polymerase γ using a homogeneous time-resolved fluorescence (HTRF) assay. Off-target inhibition of DNA polymerase γ by NRTIs can result in undesired mitochondrial toxicity. Assay procedures and results are described below.
The human DNA polymerase γ homogeneous time-resolved fluorescence (HTRF) assay was performed with recombinant human DNA polymerase γ protein (Gentaur) in a 384-well format. Test compound was serially diluted in water and further diluted in the assay buffer (28 mM Tris-HCl, 14 mM NaCl, 0.56 mM MgCl2, 0.011% Triton X-100, 0.11 mg/ml BSA, 1.1 mM DTT, pH 8.1). The serially diluted compound was mixed with polymerase γ, 10 nM of pre-annealed template/biotin-primer pair (synthesized at Geneway Biotechnology), 100 nM of Fluorescein-12-dCTP fluorescent probe (PerkinElmer), and 10 μM dGTP/dATP/dTTP (ThermoFisher Scientific) in the assay buffer. The template/biotin-primer sequences were as follows:
After incubating at room temperature for 30 minutes, the detection reagent (5 mM EDTA with streptavidin-terbium cryptate, Cisbio Bioassay) in the PPI buffer (Cisbio Bioassay) was added, and the mixture was incubated at room temperature for 60 minutes. At the end of the incubation, fluorescence was read at ex/em=337/485 nm and ex/em=337/520 nm on an Envision 2104 plate reader (PerkinElmer). The fluorescence ratio at 520/485 nm was used for the calculation. […] The IC50 was calculated by fitting the compound dose inhibition curve with a 4-parameter non-linear regression equation.

T1 sequence (V9H0F6 entry or part of it): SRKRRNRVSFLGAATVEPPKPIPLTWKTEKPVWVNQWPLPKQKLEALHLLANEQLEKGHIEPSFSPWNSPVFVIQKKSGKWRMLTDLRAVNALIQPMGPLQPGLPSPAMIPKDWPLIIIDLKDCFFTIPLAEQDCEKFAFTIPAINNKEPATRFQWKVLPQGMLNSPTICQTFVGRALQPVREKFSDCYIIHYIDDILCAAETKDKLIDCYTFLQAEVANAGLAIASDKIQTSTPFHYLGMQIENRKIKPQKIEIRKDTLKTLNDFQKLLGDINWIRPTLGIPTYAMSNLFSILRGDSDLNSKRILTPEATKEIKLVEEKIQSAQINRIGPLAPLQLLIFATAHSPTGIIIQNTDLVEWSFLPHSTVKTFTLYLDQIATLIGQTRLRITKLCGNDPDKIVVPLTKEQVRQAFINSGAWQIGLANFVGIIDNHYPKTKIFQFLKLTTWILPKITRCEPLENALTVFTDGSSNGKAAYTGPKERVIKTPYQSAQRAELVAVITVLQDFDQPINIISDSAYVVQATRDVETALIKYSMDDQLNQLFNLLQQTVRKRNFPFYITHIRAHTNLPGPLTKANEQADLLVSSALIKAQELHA

`CC[C@]1(COP(=O)(O)OP(=O)(O)OP(=O)(O)O)O[C@@H](n2ccc(N)nc2=O)C[C@@H]1O` [44-TP]: the half-inhibitory concentration (IC50) in assay [1] was above 10 µM; against human DNA polymerase γ, above 300 µM.

Take `Nc1ccn([C@H]2C[C@H](O)[C@@](CCl)(COP(=O)(O)OP(=O)(O)OP(=O)(O)O)O2)c(=O)n1` [Compound 2-TP]: the IC50 in assay [1] is 17 µM; against human DNA polymerase γ it was at most 50 µM.

For `Nc1nc(=O)n([C@H]2C[C@H](O)[C@@](CCl)(COP(=O)(O)OP(=O)(O)OP(=O)(O)O)O2)cc1F` [Compound 14-TP, ((2R,3S,5R)-5-(4-amino-5-fluoro-2-oxopyrimidin-1(2H)-yl)-2-(chloromethyl)-3-hydroxytetrahydrofuran-2-yl)methyl tetrahydrogen triphosphate TEA Salt], the IC50 in assay [1] was above 10 µM; against human DNA polymerase γ, 50 to 100 µM.

Consider `C#C[C@]1(COP(=O)(O)OP(=O)(O)OP(=O)(O)O)O[C@@H](n2ccc(N)nc2=O)[C@@H](F)[C@@H]1O` [Compound 35-TP], for which the IC50 was 0.013 µM in assay [1] and 200 to 300 µM against human DNA polymerase γ.

Turning to `Nc1ccn([C@@H]2O[C@](CCl)(COP(=O)(O)OP(=O)(O)OP(=O)(O)O)[C@@H](O)[C@@H]2F)c(=O)n1` [Compound 40-TP], the values for the IC50 (in assay [1]; against human DNA polymerase γ) were above 10 µM and 200 to 300 µM, respectively.

`C=C[C@]1(COP(=O)(O)OP(=O)(O)OP(=O)(O)O)O[C@@H](n2ccc(N)nc2=O)C[C@@H]1O` [Compound 43-TP]: the IC50 was 4.01 µM in assay [1] and 200 to 300 µM against human DNA polymerase γ.

Consider `Nc1nc(=O)n([C@@H]2O[C@](CCl)(COP(=O)(O)OP(=O)(O)OP(=O)(O)O)[C@@H](O)[C@@H]2F)cc1F` [Compound 67-TP], for which the IC50 was above 10 µM in assay [1] and 200 to 300 µM against human DNA polymerase γ.

Usually IC50 stands for the point on the concentration scale where inhibition reaches its midpoint. Higher therefore signals weaker potency in that assay.
